Source: patent US20250170073A1, “SYNERGISTIC COMPOSITIONS FOR IMPROVING MINERAL BIOACCESSIBILITY” (priority 2022, published 2025)

Experiment: Simulated digestion model, mineral bioaccessibility
Format: in vitro ADME
Conditions: in the presence of lutein
Protocol: In vitro simulated gastrointestinal digestion was used for assessing mineral bioaccessibility in presence of the tested compounds.
Mineral bioaccessibility buffer (MBB) was prepared (NaCl; 6.6 mg/mL, MgSO4; 0.12 mg/mL, Glucose; 0.9 mg/mL, L-Ascorbic acid; 0.09 mg/mL, HEPES; 8.6 mg/mL at pH 6.5) with Calcium, Iron and Zinc (tricalcium phosphate; 1314.6 μg/mL, Calcium D-pantothenate; 28.5 μg/mL, Calcium Carbonate; 13.0 μg/mL, Iron Sulphate heptahydrate; 3.8 μg/mL, Iron Chloride; 12.5 μg/mL, Zinc Sulphate heptahydrate; 17.4 μg/mL, Zinc Chloride; 2.2 μg/mL) to achieve a total mineral content (Calcium; 520 μg/mL, Iron; 5.0 μg/mL, Zinc; 5.0 μg/mL), as well as soluble mineral content similar to that of infant formula. […]
The transit of CCP, Lutein, 2-PA and non-digestible Gos/Fos through the gastro-intestinal tract was mimicked using a three-phase dialysis model that was adapted from literature [Venema, 2020]. […] Calcium, Iron and Zinc in the dialysate were analyzed with ICP-OES spectrometry.
The average (n=3) total amount of Calcium, Iron and Zinc measured in the dialysate was considered bioaccessible. […]

## CC1=C[C@H](O)CC(C)(C)[C@H]1/C=C/C(C)=C/C=C/C(C)=C/C=C/C=C(C)/C=C/C=C(C)/C=C/C1=C(C)C[C@@H](O)CC1(C)C [lutein]
  mineral bioaccessibility: significantly increased
